Compound	melting point
O=C(Nc1ccc(C(CC2CCCC2)C(=O)Nc2nccs2)cc1)c1ccccc1 (stereo not drawn) [Example 1]	285 to 290 °C
O=C(Cc1cccs1)Nc1ccc(C(CC2CCCC2)C(=O)Nc2nccs2)cc1 (stereo not drawn) [Example 2, 3-Cyclopentyl-N-thiazol-2-yl-2-[4-(2-thiophen-2-yl-acetylamino)-phenyl]-propionamide]	220 to 221 °C
O=C(Nc1nccs1)C(CC1CCCC1)c1ccc(NS(=O)(=O)c2ccc([N+](=O)[O-])cc2)cc1 (stereo not drawn) [Example 3, 3-Cyclopentyl-2-[4-(4-nitro-benzenesulfonylamino)-phenyl]-N-thiazol-2-yl-propionamide]	120 to 125 °C
O=C(Nc1ccc(C(CC2CCCC2)C(=O)Nc2nccs2)cc1)c1ccncc1 (stereo not drawn) [Example 4, N-{4-[2-Cyclopentyl-1-(thiazol-2-ylcarbamoyl)-ethyl]-phenyl}-isonicotinamide]	225 to 230 °C
O=C(Nc1ccc(C(CC2CCCC2)C(=O)Nc2nccs2)cc1)c1ccc([N+](=O)[O-])cc1 (stereo not drawn) [Example 5, N-{4-[2-Cyclopentyl-1-(thiazol-2-ylcarbamoyl)-ethyl]-phenyl}-4-nitro-benzamide]	236 to 238 °C
COC(=O)C(=O)Nc1ccc(C(CC2CCCC2)C(=O)Nc2nccs2)cc1 (stereo not drawn) [Example 6, N-{4-[2-Cyclopentyl-1-(thiazol-2-ylcarbamoyl)-ethyl]-phenyl}-oxalamic acid methyl ester]	95 to 98 °C
CC(=O)OCC(=O)Nc1ccc(C(CC2CCCC2)C(=O)Nc2nccs2)cc1 (stereo not drawn) [Example 7, Acetic acid {4-[2-cyclopentyl-1-(thiazol-2-ylcarbamoyl)-ethyl]-phenylcarbamoyl}-methyl ester]	90 to 95 °C
CN(C)S(=O)(=O)Nc1ccc(C(CC2CCCC2)C(=O)Nc2nccs2)cc1 (stereo not drawn) [Example 8, N-{4-[2-Cyclopentyl-1-(thiazol-2-ylcarbamoyl)-ethyl]-phenyl}-dimethylsulfamide]	110 to 112 °C
O=C(Nc1ccc(C(CC2CCCC2)C(=O)Nc2nccs2)cc1)c1cccnc1 (stereo not drawn) [Example 9, N-{4-[2-Cyclopentyl-1-(thiazol-2-ylcarbamoyl)-ethyl]-phenyl}-nicotinamide]	240 to 242 °C
CCOC(=O)c1csc(NC(=O)C(CC2CCCC2)c2ccc(NC(=O)c3cccnc3)cc2)n1 (stereo not drawn) [Example 10, 2-(3-Cyclopentyl-2-{4-[(pyridine-3-carbonyl)-amino]-phenyl}propionylamino)-thiazole-4-carboxylic acid ethyl ester]	222 to 223 °C
CCOC(=O)Cc1csc(NC(=O)C(CC2CCCC2)c2ccc(NC(=O)c3cccnc3)cc2)n1 (stereo not drawn) [Example 11, [2-(3-Cyclopentyl-2-{4-[(pyridine-3-carbonyl)-amino]-phenyl}-propionylamino)-thiazol-4-yl]-acetic acid ethyl ester]	195 to 200 °C
CS(=O)(=O)Nc1ccc(C(CC2CCCC2)C(=O)Nc2nccs2)cc1 (stereo not drawn) [Example 12, 3-Cyclopentyl-2-(4-methanesulfonylamino-phenyl)-N-thiazol-2-yl-propionamide]	85 to 90 °C
O=C(Nc1nccs1)C(CC1CCCC1)c1ccc(NS(=O)(=O)C(F)(F)F)cc1 (stereo not drawn) [Example 13, 3-Cyclopentyl-N-thiazol-2-yl-2-(4-trifluoromethanesulfonylamino-phenyl)-propionamide]	70 to 74 °C
O=C(Nc1ccc(C(CC2CCCC2)C(=O)Nc2ccccn2)cc1)c1cccnc1 (stereo not drawn) [Example 15, N-{4-[2-Cyclopentyl-1-(pyridin-2-ylcarbamoyl)-ethyl]-phenyl}-nicotinamide]	160 to 163 °C
COC(=O)c1ccc(NC(=O)C(CC2CCCC2)c2ccc(NC(=O)c3cccnc3)cc2)nc1 (stereo not drawn) [Example 16, 6-(3-Cyclopentyl-2-{4-[(pyridine-3-carbonyl)-amino]-phenyl}-propionylamino)-nicotinic acid methyl ester]	110 to 111 °C

From patent US6489485B2, “Para-amine substituted phenylamide glucokinase activators” (Hoffmann-La Roche Inc., priority 2000, dated 2002)
